According to patent US20090093011A1, “Biosensors for ligand-directed functional selectivity” (priority 2007, published 2009):
“Also recorded” adds a separate entry of the source. Where two headings read alike, the source gives them in different places.

Assays:
β2AR [1] = molecular target: T1, β2AR (Homo sapiens, UniProt P07550); test: Ligand-induced DMR signal, RWG biosensor, quiescent A431 cells; assay type: cell-based; set-up: A431 cells endogenously express large numbers of the β2AR; endogenous in cells; host or cells: A431 (human epidermoid carcinoma), quiescent; details: for EC50: DMR response at assay time of 50 min; for t1/2: P-DMR event, single phase exponential association fit; for N-DMR (pm): amplitude of N-DMR event; for P-DMR (pm): amplitude of P-DMR event; for t1/2 of the P-DMR event: one-phase exponential association; for type of DMR signal induced by the ligand alone: saturating concentration, quiescent A431 cells; for transition time (τ in seconds): time for the P-DMR event to occur; for t1/2 of single-phase exponential decay of EC50 with assay time: EC50 as a function of assay time (FIG. 3c)
Experimental: Cell culture—Human epidermoid carcinoma A431 cells (American Type Cell Culture) were grown in Dulbecco's modified Eagle's medium (DMEM) supplemented with 10% fetal bovine serum (FBS), 4.5 g/liter glucose, 2 mM glutamine, and antibiotics. About 1.8×10^4 cells at passage 3 to 8 suspended in 50 μL the DMEM medium containing 10% FBS were placed in each well of a 384-well microplate, and were cultured at 37° C. under air/5% CO2 for about 1 day, followed by about 20 hr starvation through continuously culturing in the serum-free DMEM.
Optical biosensor system and cell assays—A Corning® Epic® wavelength interrogation system with an on-board liquid handling system was used. The system is standalone and consists of a temperature-control unit, an optical detection unit, and an on-board liquid handling unit with robotics. The temperature-control unit minimizes temperature fluctuations, if any. Inside this unit, there are two side-by-side stacks for holding both the sensor microplates and compound source plates. Once stable temperature is reached (typically within 1 hr), a sensor microplate is transferred by the robotics into the plate holder right above the detection system, while a source plate is moved to an appropriate compartment so that it is readily addressable by the on-board liquid handling unit.
The detection unit has integrated fiber optics to measure the wavelength shift of the resonant lights due to ligand-induced dynamic mass redistribution in living cells. A broadband white light source centered on 830 nm, generated through a fiber optic and a collimating lens at nominally normal incidence through the bottom of the microplate, is used to illuminate a small region of the grating surface. A detection fiber for recording the reflected light is bundled with the illumination fiber. A series of illumination/detection heads are arranged in a linear fashion, so that reflection spectra are collected from the 16-wells within the same column of a 384 well microplate at once.
(§1) For kinetic assays, the cells were washed with HBSS (Hanks Balanced Salt Solution with 20 mM HEPES) buffer. After 1 hour incubation within the detection system, the sensor plate was scanned and a baseline response was recorded. Then, compound solutions were transferred into the sensor plate using the on-board liquid handling system, and the cell responses were then recorded for another period of time. The lid of the sensor microplates was on throughout the assay, except of a short period of time (about 1 min.) when the compounds were introduced. The plate lid was handled automatically by the robotics. All studies were carried out at controlled temperature (28° C.).
Statistical analysis—Unless specifically mentioned, three replicates were carried out for each measurement or each compound. The standard deviation was derived from these measurements (n=3). […] All dose-dependent responses were analyzed using non-linear regression method with Prism software (available from Graph Pad).
Ligand-specific DMR signals—β2AR in A431 cells were selected as a model system for assaying ligand-directed functional selectivity, because of well-established signaling pathways of the β2AR in A431 as well as the availability of a rich source of structurally similar ligands having wide spectrum of efficacies. A431 cells endogenously express large numbers of the β2AR (about 34,000 copies per cells). To examine the functional selectivity of β2AR ligands, we used RWG biosensor to follow change in local mass density or distribution as a function of time upon stimulation with a saturating concentration of a ligand. The RWG biosensor detects an integrated response, termed as dynamic mass redistribution (DMR) signal, mediated through ligand-induced activation of the β2AR. The DMR signal approximates a global representation of the receptor activation and signaling, particularly for signaling events associated with dynamic relocation of cellular matters at or near the sensor surface.

β2AR [2] = molecular target: T1, β2AR; details: binding affinity reference value from literature sources; cited from earlier work
β2AR [3] = molecular target: T1, β2AR; details: βARK- and PKA-mediated phosphorylation; cited from earlier work
dynamin = details: 2 nM epinephrine after pretreatment with 25 μM DIPC
Text: Although not bound by theory, a receptor internalization process is believed to result in a loss in local mass density or distribution within the sensing volume of the biosensor, leading to a negative contribution to the overall response. Since dynamin is known to play an important role in the ligand-induced β2AR internalization, we examined the effect of inhibiting dynamin activity on the ligand responses.

β2AR [4] = molecular target: T1, β2AR; test: Catechol co-stimulation of β2AR ligand-induced DMR signals in A431 cells; assay type: cell-based; set-up: A431 cells endogenously express large numbers of the β2AR; endogenous in cells; host or cells: A431 (human epidermoid carcinoma), quiescent; details: catechol of 500 μM; pindolol of 10 nM, epinephrine of 100 nM
Text: The ability of catechol to modulate the DMR signals induced by other ligands was examined. […] In embodiments the signaling of 600 or 610 can be completely separated, or can partially overlap.

β2AR [5] = molecular target: T1, β2AR; details: dopamine of <100 μM; antagonist 1 μM
Experimental: as §1

T1 sequence (P07550 whole entry): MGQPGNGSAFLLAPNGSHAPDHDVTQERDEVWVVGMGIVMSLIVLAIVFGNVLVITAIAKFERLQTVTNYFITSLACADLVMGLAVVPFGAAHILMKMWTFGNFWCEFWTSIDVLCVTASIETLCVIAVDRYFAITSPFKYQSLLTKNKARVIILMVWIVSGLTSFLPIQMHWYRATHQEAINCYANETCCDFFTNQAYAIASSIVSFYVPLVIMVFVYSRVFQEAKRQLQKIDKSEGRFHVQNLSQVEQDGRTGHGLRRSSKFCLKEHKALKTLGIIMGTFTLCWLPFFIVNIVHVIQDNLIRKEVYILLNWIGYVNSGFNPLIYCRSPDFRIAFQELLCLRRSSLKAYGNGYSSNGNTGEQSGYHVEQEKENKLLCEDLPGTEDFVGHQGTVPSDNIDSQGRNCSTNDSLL

SMILES: Oc1ccccc1O [catechol]
- transition time (τ) (β2AR [1]): about 140 sec
- EC50 (β2AR [1]): 501 µM
- t1/2 (β2AR [1]): 4.82 ± 0.7 min
- N-DMR (pm) (β2AR [1]): 0 ± 3 pm
- P-DMR (pm) (β2AR [1]): 152 ± 13 pm
- maximal amplitude of the P-DMR event, normalized to the epinephrine response (β2AR [1]; n=16): 66%
- t1/2 of the P-DMR event (β2AR [1]): about 289 s
- type of DMR signal induced by the ligand alone (β2AR [1]): initial steady phase (termed as net-zero DMR) with a short duration, and a succeeding P-DMR
- transition time (τ in seconds) (β2AR [1]): 130 ± 15 s
- −logKi (ref.) (β2AR [2]): 3.80(3)

SMILES: NCCc1ccc(O)c(O)c1 [dopamine]
- t1/2 (β2AR [1]): 8 ± 0.383 min
- N-DMR (pm) (β2AR [1]): 31 ± 4 pm
- P-DMR (pm) (β2AR [1]): 214 ± 32 pm
- t1/2 of the P-DMR event (β2AR [1]): about 480 s
- type of DMR signal induced by the ligand alone (β2AR [1]): biphasic response
- transition time (τ in seconds) (β2AR [1]): 252 ± 15 s

SMILES: CNC[C@H](O)c1ccc(O)c(O)c1 [epinephrine]
- kobs of receptor phosphorylation (β2AR [3]): about 20 sec
- transition time (τ) (β2AR [1]): about 140 sec
- t1/2 of single-phase exponential decay of EC50 with assay time (β2AR [1]): about 203 sec
- t1/2 (β2AR [1]): 8.68 ± 0.417 min
- N-DMR (pm) (β2AR [1]): 37 ± 7 pm
- P-DMR (pm) (β2AR [1]): 232 ± 12 pm
- duration of initial N-DMR (β2AR [1]; epinephrine response, FIG. 1): about 130 sec
- duration of subsequent P-DMR (β2AR [1]; epinephrine response, FIG. 1): > 10 min
- maximal amplitude of the P-DMR event, normalized to the epinephrine response (β2AR [1]; n=16): 100%
- type of DMR signal induced by the ligand alone (β2AR [1]): biphasic response
- transition time (τ in seconds) (β2AR [1]): 132 ± 20 s
- t1/2 for the P-DMR event (dynamin): about 200 seconds
- transition time (τ) (dynamin): about 120 sec
- DMR signal on co-stimulation with catechol compared with individual signals (β2AR [4]): almost identical to that induced by 100 nM epinephrine alone

SMILES: CNCC(O)c1ccccc1 (centres unmarked) [halostachine]
- maximal amplitude of the P-DMR event, normalized to the epinephrine response (β2AR [1]): 90%
- EC50 (β2AR [1]): 23.4 µM
- −logKi (ref.) (β2AR [2]): 5.08(3)

SMILES: NC[C@H](O)c1ccc(O)c(O)c1 [norepinephrine]
- t1/2 of single-phase exponential decay of EC50 with assay time (β2AR [1]): about 248 sec
- t1/2 (β2AR [1]): 9.32 ± 0.25 min
- N-DMR (pm) (β2AR [1]): 29 ± 5 pm
- P-DMR (pm) (β2AR [1]): 209 ± 16 pm
- maximal amplitude of the P-DMR event, normalized to the epinephrine response (β2AR [1]; n=16): 91%
- type of DMR signal induced by the ligand alone (β2AR [1]): biphasic response
- transition time (τ in seconds) (β2AR [1]): 180 ± 17 s

SMILES: NCCc1ccccc1 [phenylethylamine]
- type of DMR signal induced by the ligand alone (β2AR [1]): complicated DMR signal

SMILES: CC(C)NCC(O)COc1cccc2[nH]ccc12 (centres unmarked) [pindolol]
- t1/2 (β2AR [1]): 8.6 ± 0.783 min
- N-DMR (pm) (β2AR [1]): 0 ± 4 pm
- P-DMR (pm) (β2AR [1]): 142 ± 19 pm
- maximal amplitude of the P-DMR event, normalized to the epinephrine response (β2AR [1]; n=16): 61%
- type of DMR signal induced by the ligand alone (β2AR [1]): initial steady phase (termed as net-zero DMR) with a short duration, and a succeeding P-DMR
- transition time (τ in seconds) (β2AR [1]): 250 ± 15 s
- DMR signal on co-stimulation with catechol compared with individual signals (β2AR [4]): closely resembled, but was not identical to, the sum of the two DMR signals; also recorded: close to the sum of the two DMR signals obtained individually

SMILES: O=C(CCCN1CCC2(CC1)C(=O)NCN2c1ccccc1)c1ccc(F)cc1 [spiperone]
- inhibition of the dopamine response (β2AR [5]): neither 1 μM SCH 23390 nor 1 μM spiperone

SMILES: NCCc1ccc(O)cc1 [tyramine]
- type of DMR signal induced by the ligand alone (β2AR [1]): complicated DMR signal

SMILES: O=C(NCCNCC(O)COc1ccc(O)cc1)N1CCOCC1 (centres unmarked) [xamoterol]
- t1/2 (β2AR [1]): 16.2 ± 2.5 min
- N-DMR (pm) (β2AR [1]): 0 ± 5 pm
- P-DMR (pm) (β2AR [1]): 75 ± 18 pm
- t1/2 of the P-DMR event (β2AR [1]): about 974 s
- type of DMR signal induced by the ligand alone (β2AR [1]): initial steady phase (termed as net-zero DMR) with a short duration, and a succeeding P-DMR
- transition time (τ in seconds) (β2AR [1]): 260 ± 26 s
